Tests used:
Jurkat = assay: Cytotoxicity against human Jurkat T cells; assay type: functional, cell-based
Ramos = assay: Cytotoxicity against human Ramos B cells; assay type: functional, cell-based
[1] = Selectivity for Jurkat T cells over Ramos B cells; assay type: functional

Structure (SMILES) | EC50 (Jurkat) | EC50 (Ramos) | Ratio EC50 [1]
CN1C(=O)C(Cc2ccc(-c3ccc(C(=O)O)cc3)cc2)NC(=O)c2cc(Cl)ccc21 (stereo not drawn) | 15.1 µM | 31.8 µM | 2.1
CN1C(=O)C(Cc2cccc3ccccc23)NC(=O)c2cc(Cl)ccc21 (stereo not drawn) | 20.5 µM | 12.6 µM | 
CN1C(=O)C(Cc2ccc(-c3cccc(Br)c3)cc2)NC(=O)c2cc(Cl)ccc21 (stereo not drawn) | 4.8 µM | 9.2 µM | 1.9
CN1C(=O)C(Cc2ccc(-c3cccc(Cl)c3)cc2)NC(=O)c2cc(Cl)ccc21 (stereo not drawn) | 2 µM | 1.5 µM | 0.8
CN1C(=O)C(Cc2ccc(-c3ccc(Br)cc3)cc2)NC(=O)c2cc(Cl)ccc21 (stereo not drawn) | 9.8 µM | > 20 µM | >2
Cc1ccccc1-c1ccc(CC2NC(=O)c3cc(Cl)ccc3N(C)C2=O)cc1 (stereo not drawn) | 5.4 µM | 6.7 µM | 1.2
CN1C(=O)C(Cc2ccc(-c3cccc(C(F)(F)F)c3)cc2)NC(=O)c2cc(Cl)ccc21 (stereo not drawn) | 4.5 µM | 4 µM | 0.9
CN1C(=O)C(Cc2ccccc2)NC(=O)c2cc(Cl)ccc21 (stereo not drawn) | > 80 µM | > 100 µM | 
CN1C(=O)C(CCc2ccccc2)NC(=O)c2cc(Cl)ccc21 (stereo not drawn) | > 80 µM | > 100 µM | 
CN1C(=O)C(Cc2ccc(-c3ccccc3[N+](=O)[O-])cc2)NC(=O)c2cc(Cl)ccc21 (stereo not drawn) | > 20 µM | > 20 µM | 
CN1C(=O)C(Cc2ccc(-c3cccc([N+](=O)[O-])c3)cc2)NC(=O)c2cc(Cl)ccc21 (stereo not drawn) | 1.5 µM | 4.2 µM | 2.8
CN1C(=O)C(Cc2ccc(-c3ccc([N+](=O)[O-])cc3)cc2)NC(=O)c2cc(Cl)ccc21 (stereo not drawn) | 3.8 µM | 10 µM | 2.6
CN1C(=O)C(Cc2ccc(-c3ccc(O)cc3)cc2)NC(=O)c2cc(Cl)ccc21 (stereo not drawn) | 1.5 µM | 6 µM | 4
CN1C(=O)C(Cc2ccc(-c3ccccc3Cl)cc2)NC(=O)c2cc(Cl)ccc21 (stereo not drawn) | 8.3 µM | 10.3 µM | 1.2
Cc1ccc(-c2ccc(CC3NC(=O)c4cc(Cl)ccc4N(C)C3=O)cc2)cc1 (stereo not drawn) | 3.6 µM | 6.9 µM | 1.9
CN1C(=O)C(Cc2ccc(-c3ccccc3)cc2)NC(=O)c2cc(Cl)ccc21 (stereo not drawn) | 2.3 µM | 6.2 µM | 
CN1C(=O)C(Cc2ccc(-c3cccnc3)cc2)NC(=O)c2cc(Cl)ccc21 (stereo not drawn) | 0.6 µM | 6 µM | 10
CN1C(=O)C(Cc2ccc(-c3ccc(C(F)(F)F)cc3)cc2)NC(=O)c2cc(Cl)ccc21 (stereo not drawn) | 5.2 µM | 4.8 µM | 0.9
CN1C(=O)C(Cc2cccc(-c3ccccc3)c2)NC(=O)c2cc(Cl)ccc21 (stereo not drawn) | 5.4 µM | 19.1 µM | 
CN1C(=O)C(Cc2ccc(-c3cccc(O)c3)cc2)NC(=O)c2cc(Cl)ccc21 (stereo not drawn) | 1.5 µM | 4 µM | 2.7
Cc1cccc(-c2ccc(CC3NC(=O)c4cc(Cl)ccc4N(C)C3=O)cc2)c1 (stereo not drawn) | 3.1 µM | 2.8 µM | 0.9
CN1C(=O)C(Cc2ccc(-c3cccc(C(=O)O)c3)cc2)NC(=O)c2cc(Cl)ccc21 (stereo not drawn) | > 20 µM | > 20 µM | 
CN1C(=O)C(Cc2ccc(C(C)(C)C)cc2)NC(=O)c2cc(Cl)ccc21 (stereo not drawn) | 8.2 µM | 16.2 µM | 
CN1C(=O)C(Cc2ccc(-c3ccc(Cl)cc3)cc2)NC(=O)c2cc(Cl)ccc21 (stereo not drawn) | 6.5 µM | 6.5 µM | 1
CN1C(=O)C(Cc2ccccc2Cc2ccccc2)NC(=O)c2cc(Cl)ccc21 (stereo not drawn) | 17.6 µM | 18.6 µM | 
CN1C(=O)C(Cc2c[nH]c3ccccc23)NC(=O)c2cc(Cl)ccc21 (stereo not drawn) | 26.2 µM | 9.2 µM | 
CN1C(=O)C(Cc2ccc(/C=C/c3ccccc3)cc2)NC(=O)c2cc(Cl)ccc21 (stereo not drawn) | 7.5 µM | 50.3 µM | 
CN1C(=O)C(Cc2ccc(-c3ccncc3)cc2)NC(=O)c2cc(Cl)ccc21 (stereo not drawn) | 0.5 µM | 3 µM | 6
CN1C(=O)C(Cc2ccc(-c3ccoc3)cc2)NC(=O)c2cc(Cl)ccc21 (stereo not drawn) | 0.3 µM | 2 µM | 6.5
CN1C(=O)C(Cc2ccc3ccccc3c2)NC(=O)c2cc(Cl)ccc21 (stereo not drawn) | 3 µM | 10.7 µM | 

— ChEMBL document CHEMBL1146975, “Identification of cytotoxic, T-cell-selective 1,4-benzodiazepine-2,5-diones” (Bioorg Med Chem Lett, 2006)
